Reference: patent US20160123960A1, “METHOD FOR PREPARING THREE-DIMENSIONAL, ORGANOTYPIC CELL CULTURES AND USES THEREOF” (priority 2013, published 2016)
pIC50: −log10 of the molar value.

Columns and labels:
[1] = test system: HCT-116 (HCT-116-Luc) OTOCs; conditions: repeated experiment, newly generated HCT-116 OTOCs and InSphero spheroids
Experimental: 24 OTOCs were removed and placed in a 6-well plate, 4 OTOCs/well on day 3 post OTOC seeding/creation.
At 4 days post drug administration all OTOC's were collected for viability measurement to look at growth kinetics and drug resistance to STP.
Each OTOC was placed in a glass test tube with several glass beads. Approximately 800 of PBS was added to test tube and the tube was vortexed for 2-3 min to disrupt the OTOC. After vortexing each test tube was placed on ice until sampling. A black 96 well plate was used for the samples. For each lane 100 μl of the OTOC solution was placed in each well (8 wells/800 (total)/OTOC) until all OTOCs samples were completed. 100 μl of Celltiter glow was added to each well and the plates were rested for 10 min before reading. IVIS Spectrum was run on Auto exposure for each plate and the Living Image analysis program was used to determine Radiance/per well. Lanes were added up and group average and error was determined.
The same conditions that were use in the previous InSphero experiment (in regards to dose and timing) were used in this experiment.

HCT-116 spheroids = assay: InSphero assay (hanging drop spheroids), HCT-116; conditions: Homo sapiens
Source text: This experiment that was undertaken was to determine if there was an increase in the resistance of known drug in comparison of the spheroid culture to OTOC format. The same conditions that were use in the previous InSphero experiment (in regards to dose and timing) were used in this experiment.

T47D μOTOCs = assay: 18F-FDG uptake in μOTOCs by Cerenkov Luminescence Imaging, T47D; type: cell-based; conditions: 250 μM, 24 hrs, CLI
Experimental: (§1) Cobalt chloride (CoCl2) is known to cause an increase in 18F-FDG uptake in cells treated /over 24 hours. As such, 250 μM CoCl2 was used to test whether μTOCs could be imaged.
(§2) μOTOCs of H1048 (small cell lung carcinoma) and T47D (mammary gland; ductal carcinoma) cells were generated using the method described in Example 1.
(§3) On Day 3 post seeding/creation of the OTOCs (i.e, after forming the μOTOCs in oil then transferring to T75 flask for 3 days of culture), the μOTOCs were transferred one at a time via pipette into a 96 well plate (1 μOTOC/well). 250 μM CoCl2 was added to each well. Cerenkov Luminescence Imaging was used to monitor the FDG response in vitro.

H1048 μOTOCs = assay: 18F-FDG uptake in μOTOCs by Cerenkov Luminescence Imaging, H1048; type: cell-based; conditions: 250 μM, 24 hrs, CLI
Experimental: as §1, §2, §3

HT-29 (KRAS WT) = assay: In vivo response of HT-29 (t/c); conditions: HT-29 in vivo
HCT-116 OTOCs = assay: 18F-FDG uptake in OTOCs by Cerenkov Luminescence Imaging, HCT-116; type: cell-based; conditions: 700 ng/ml, 24 hr time point, CLI
Source text: (§4) The objective of this study was to monitor radio-labeled compound uptake in vitro using the OTOC system described herein. Three tumor cell lines (HT-29 (colon tumor cell line), HCT-116 (colon tumor cell line), and H460 (lung tumor cell line) were used to generate OTOCs in order to test the effects of FDG uptake after drug treatment with MLN9708, a proteasome inhibitor. OTOCs for each cell line were transferred to 6 well plates, respectively, with 6 OTOCs/well.
(§5) An in vitro dosage of MLN9708 was extrapolated from historical in vivo PK studies for this compound. A 700 ng/ml concentration was decided upon and used in the OTOC studies described herein (derived from the mean tumor concentration achievable with a standard dose of MLN9708 (11 mg/kg PK dose, IV)).
(§6) The imaging modality Cerenkov Luminescence Imaging (CLI, Robertson et al. (2009) Phys. Med. Biol. 54:N355-N365) was used to monitor the FDG response in vitro.
(§7) The cell line HT-29 (KRAS WT) is known to be responsive to MLN9708 in vivo (t/c <0.3), while HCT-116 and H460 (both KRAS mutants) have shown resistance to proteasome inhibition (data not shown). OTOCs were imaged via CLI at 24, 48, 72, 96 hours post compound administration.

H460 OTOCs = assay: 18F-FDG uptake in OTOCs by Cerenkov Luminescence Imaging, H460; type: cell-based; conditions: 700 ng/ml, 24 hr time point, CLI
Source text: as §4, §5, §6, §7

HT-29 OTOCs = assay: 18F-FDG uptake in OTOCs by Cerenkov Luminescence Imaging, HT-29; type: cell-based; conditions: 700 ng/ml, 24 hr time point, CLI
Source text: as §4, §5, §6, §7

CN[C@@H]1C[C@H]2O[C@@](C)([C@@H]1OC)n1c3ccccc3c3c4c(c5c6ccccc6n2c5c31)C(=O)NC4 [Staurosporine]
greater resistance in OTOCs assay as compared to InSphero assay [1]: 1800 × | pIC50 (HCT-116 spheroids): 7.43

[Cl][Co][Cl] [CoCl2, Cobalt chloride]
increase in FDG uptake (T47D μOTOCs): 33.7% | increase in 18F-FDG uptake (H1048 μOTOCs): 22.6%

CC(C)C[C@H](NC(=O)CNC(=O)c1cc(Cl)ccc1Cl)B1OC(=O)C(CC(=O)O)(CC(=O)O)O1 [MLN9708]
t/c (HT-29 (KRAS WT)): < 0.3 | FDG uptake response (HCT-116 OTOCs): < 10% | FDG signal change from control (H460 OTOCs): -10% | increased FDG uptake (HT-29 OTOCs): 48%
